Laboratory results as given in patent US6608082B1, “Treatment of erectile dysfunction using isoquinoline compound melanocortin receptor ligands” (Lion Bioscience AG, priority 1998, dated 2003).
pIC50: −log10 of the molar value. Several values for one entry are separate records, joined by “and”; a condition that tells them apart may be missing. Equal entries are not always repeated. Where two headings read alike, the source gives them in different places.

Experiments:
IL-10 = assay: Increasing levels of IL-10 in mice (plasma ELISA); assay type: in vivo; conditions: mouse plasma, 90 or 105 minutes; for % IL-10 Induction, IP 30: 30 μg per mouse; for % IL-10 Induction, IP 300 / % IL-10 Induction, Oral 300: 300 μg per mouse; for % IL-10 Induction, Oral 600: 600 μg per mouse
Protocol: Isoquinoline compounds were administered intraperitoneally to mice in doses of 30, 100 or 300 μg/mouse or orally in doses of 300 or 600 μg/mouse. Levels of IL-10 were measured 90 or 105 minutes after administration as indicated. Samples were collected and diluted, when appropriate, as described in Example VI. A 100 μl sample of plasma was assayed by ELISA for IL-10. Briefly, ELISA plates were coated with rat anti-mouse IL-10 monoclonal antibody (Pharmingen; San Diego Calif.). Samples or known concentrations of IL-10 were added to the coated plates and incubated for 2 hr at 37° C. Plates were washed and incubated with biotinylated rat anti-mouse IL-10 (R&D Systems; Minneapolis Minn.) for 1 hr at 37° C. Plates were washed and incubated with streptavidin-HRP 30 min at 37° C., and HRP activity was detected with hydrogen peroxide and TMB using standard immunoassay procedures.

MCR-1 = molecular target: T1, MCR-1 (Homo sapiens, UniProt Q01726); assay: Melanocortin receptor binding assay, competition with 125I-HP 467, HEK 293 cells expressing hMCR-1; conditions: for pIC50: read-out: MC-1 IC50; for effectiveness as MC receptor ligand: binding to MC receptors, Table 1
T1 construct: expressed in transfected cells; host or cells: HEK 293
T1 sequence (Q01726 whole entry): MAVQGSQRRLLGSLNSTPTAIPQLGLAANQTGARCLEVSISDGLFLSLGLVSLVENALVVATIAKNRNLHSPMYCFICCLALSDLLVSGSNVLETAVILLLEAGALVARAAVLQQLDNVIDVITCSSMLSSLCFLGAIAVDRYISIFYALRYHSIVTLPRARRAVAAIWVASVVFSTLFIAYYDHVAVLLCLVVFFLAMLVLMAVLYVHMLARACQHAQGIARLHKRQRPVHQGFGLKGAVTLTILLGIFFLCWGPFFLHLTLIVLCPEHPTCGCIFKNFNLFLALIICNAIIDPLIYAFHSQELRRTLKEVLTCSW
How it was run: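 Test compounds compete on intact HEK 293 cells carrying hMCR-1 (2×10^4 per tube) or hMCR-4 (4×10^3 per tube), suspended in PBS, 10% calf serum, 1 mM CaCl2.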

TNF-α = assay: Reduction of lipopolysaccharide-induced tumor necrosis factor levels in mice; assay type: in vivo, BALB/c female mice; conditions: plasma 90 or 105 minutes after LPS, mean ± SEM; for % TNF-α Inhibtion, IP 30: 30 μg per mouse; for % TNF-α Inhibtion, IP 300 / % TNF-α Inhibtion, Oral 300: 300 μg per mouse; for % TNF-α Inhibtion, Oral 600: 600 μg per mouse
Protocol: BALB/c female mice weighing approximately 20 g were placed into a control group and a treated group. Five mg/kg of LPS in 0.9% saline was administered (100 μl to give 100 μg LPS per mouse) by intraperitoneal (IP) injection to all mice. Mice in the treatment group received either 30, 100, 300 or 600 μg of various isoquinoline compounds per mouse in a volume of 100 μl of PBS. Control mice received 100 μl of saline alone. One minute after initial injections all mice received the LPS injection. As a positive control, 100 μg of HP 228 was injected per mouse.
Blood samples were collected from the orbital sinus of treated and control mice 90 minutes or 105 minutes after LPS administration. The plasma was separated by centrifugation at 3000×g for 5 min and stored at −20° C. Samples were thawed and diluted, if TNF-α concentration was greater than 3200 pg/ml, with PBS containing 1% bovine serum albumin, 10% donor horse serum, 1% normal mouse serum, 0.05% TWEEN-20 and 0.05% thimerosal. A 100 μl sample of plasma was assayed by ELISA for TNF-α. Briefly, ELISA plates were coated with hamster anti-mouse TNF-α antibody (Genzyme; Cambridge Mass.). Samples or known concentrations of TNF-α were added to the coated plates and incubated for 2 hr at 37° C. Plates were washed and subsequently incubated with biotinylated rabbit anti-mouse TNG-α for 1 hr at 37° C. Plates were washed and incubated with streptavidin-HRP for 1 hr at 37° C., and HRP activity was detected with hydrogen peroxide and o-phenylenediamine (OPD) using standard immunoassay procedures.
The mean (±SEM) TNF-α level in five mice from each group was determined and the percent reduction in TNF-α levels was calculated.

[1] = TRG 2408 and TRG 2409 libraries, inhibition of 125I-HP 467 binding
[2] = competition with 125I-HP 467, HEK 293 cells expressing MCR-1

CCNc1ccc(C2C(CNCc3ccccc3O)c3ccccc3CN2CCCC(CN)NCCc2ccccc2)cc1 (stereo not drawn) [TRG 2408-57]
% IL-10 Induction, IP 30 (IL-10; IP): 123 ± 30%
% IL-10 Induction, IP 100 (IL-10; IP, 100 μg per mouse): 247 ± 75 % and 225 ± 31 %
% IL-10 Induction, IP 300 (IL-10; IP): 386 ± 25 %
% IL-10 Induction, Oral 300 (IL-10): 57 ± 11 %
% IL-10 Induction, Oral 600 (IL-10): 104 ± 16 %
pIC50 (MCR-1; [1]): 6.55
effectiveness as MC receptor ligand (MCR-1): particularly effective MC receptor ligands
% TNF-α Inhibtion, IP 30 (TNF-α; IP): 76 ± 8 %
% TNF-α Inhibtion, IP 100 (TNF-α; IP, 100 μg per mouse): 83 ± 2 % and 87 ± 5 %
% TNF-α Inhibtion, IP 300 (TNF-α; IP): 86 ± 2 %
% TNF-α Inhibtion, Oral 300 (TNF-α): 21 ± 11%
% TNF-α Inhibtion, Oral 600 (TNF-α): 72 ± 7 %

CCNc1ccc(C2C(CNC3CCCCC3)c3ccccc3CN2CCCC(CN)NCCc2ccccc2)cc1 (stereo not drawn) [TRG 2408-62]
% IL-10 Induction, IP 30 (IL-10; IP): 51 ± 15%
% IL-10 Induction, IP 300 (IL-10; IP): 270 ± 71 %
% IL-10 Induction, Oral 300 (IL-10): 43 ± 20%
% IL-10 Induction, Oral 600 (IL-10): 27 ± 10%
pIC50 (MCR-1; [1]): 6.92
effectiveness as MC receptor ligand (MCR-1): particularly effective MC receptor ligands
% TNF-α Inhibtion, IP 30 (TNF-α; IP): 71 ± 6 %
% TNF-α Inhibtion, IP 300 (TNF-α; IP): 84 ± 8 %
% TNF-α Inhibtion, Oral 300 (TNF-α): 45 ± 11%
% TNF-α Inhibtion, Oral 600 (TNF-α): 35 ± 5%

CCCCNc1ccc(C2C(CNCc3ccccc3O)c3ccccc3CN2CCCCC(CN)NC)cc1 (stereo not drawn) [TRG 2409-2]
% IL-10 Induction, IP 30 (IL-10; IP): −30 ± 11%
% IL-10 Induction, IP 300 (IL-10; IP): 157 ± 57 %
% IL-10 Induction, Oral 300 (IL-10): 39 ± 15%
% IL-10 Induction, Oral 600 (IL-10): 82 ± 19 %
effectiveness as MC receptor ligand (MCR-1): particularly effective MC receptor ligands
pIC50 (MCR-1; [2]): 6.66
% TNF-α Inhibtion, IP 30 (TNF-α; IP): 57 ± 6 %
% TNF-α Inhibtion, IP 300 (TNF-α; IP): 65 ± 14%
% TNF-α Inhibtion, Oral 300 (TNF-α): 58 ± 2 %
% TNF-α Inhibtion, Oral 600 (TNF-α): 65 ± 2 %

CCCCNc1ccc(C2C(CNC3CCCCC3)c3ccccc3CN2CCCCC(CN)NC)cc1 (stereo not drawn) [TRG 2409-14]
% IL-10 Induction, IP 30 (IL-10; IP): −27 ± 8%
% IL-10 Induction, IP 300 (IL-10; IP): 150 ± 50 %
% IL-10 Induction, Oral 300 (IL-10): 79 ± 29%
% IL-10 Induction, Oral 600 (IL-10): 193 ± 50 %
effectiveness as MC receptor ligand (MCR-1): particularly effective MC receptor ligands
pIC50 (MCR-1; [2]): 7.00
% TNF-α Inhibtion, IP 30 (TNF-α; IP): 31 ± 7%
% TNF-α Inhibtion, IP 300 (TNF-α; IP): 76 ± 7 %
% TNF-α Inhibtion, Oral 300 (TNF-α): 41 ± 9 %
% TNF-α Inhibtion, Oral 600 (TNF-α): 67 ± 4 %
